Assay results reported in patent US20240270762A1, “PENICILLIN-BINDING PROTEIN INHIBITORS” (priority 2021, published 2024).

Key:
[1] = biological target: T1, PBP3 from Acinetobacter baumannii (ATCC 19606) (Acinetobacter baumannii, UniProt A0ABX6CK25); assay: Bocillin-FL fluorescence polarization competition binding, A. baumannii PBP3; conditions: fluorescence polarization competition binding assay using Bocillin-FL; read-out: A. baumannii PBP3 Potency
T1 sequence (A0ABX6CK25 64-610): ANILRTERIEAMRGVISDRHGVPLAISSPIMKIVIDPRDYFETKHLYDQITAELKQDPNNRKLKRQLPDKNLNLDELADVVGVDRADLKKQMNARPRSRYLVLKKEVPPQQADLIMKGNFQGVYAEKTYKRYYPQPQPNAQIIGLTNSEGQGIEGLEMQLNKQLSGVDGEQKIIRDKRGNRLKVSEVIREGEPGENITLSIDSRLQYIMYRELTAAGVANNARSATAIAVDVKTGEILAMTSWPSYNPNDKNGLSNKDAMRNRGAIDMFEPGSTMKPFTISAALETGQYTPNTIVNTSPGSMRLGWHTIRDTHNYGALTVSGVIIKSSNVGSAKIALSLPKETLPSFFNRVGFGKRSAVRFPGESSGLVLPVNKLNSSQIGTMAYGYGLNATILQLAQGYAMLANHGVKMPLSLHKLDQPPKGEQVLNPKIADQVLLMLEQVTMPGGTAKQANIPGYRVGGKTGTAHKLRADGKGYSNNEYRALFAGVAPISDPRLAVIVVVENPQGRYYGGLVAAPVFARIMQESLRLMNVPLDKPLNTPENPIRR
Excerpt: (§1) To determine the ability of boronic acid-based test PBP inhibitors to bind Penicillin Binding Proteins (PBPs), Bocillin-FL (fluorescently-labeled penicillin V; ThermoFisher Scientific) was used in a fluorescence polarization (FP) competition binding assay to assess inhibitor binding to PBP3 from Escherichia coli (K-12), PBP3 from Pseudomonas aeruginosa (PAO1), PBP1a and PBP3 from Acinetobacter baumannii (ATCC 19606), and PBP2 from Neisseria gonorrhoeae (FA19). PBPs were cloned and purified as described previously (E. coli PBP3, King, D. T, et al., ACS Infectious Diseases 2015, 1, 175-184; P. aeruginosa PBP3, Han et. al., PNAS 2010, 107 (51), 22002-22007; A. baumannii PBPs, Penwell et. al., Antimicrob. Agents Chemother. 2015, 59 (3), 1680-1689; N. gonorrhoeae PBP2, Singh et. al., J. Biol. Chem. 2019, 294 (38), 14020-14032). To establish assay conditions for competition binding, enzyme titration/saturation binding experiments were initially performed. Bocillin-FL was prepared at 0.2 μM in a buffer comprised of 50 mM Hepes (pH 8.0), 300 mM NaCl and 10% (v/v) glycerol for reactions with E. coli, P. aeruginosa and N. gonorrhoeae PBPs, and 25 mM Tris (pH 8.0), 200 mM NaCl, 10% (v/v) glycerol and 0.005% (v/v) Tween 20 for reactions with A. baumannii PBPs. Saturation binding was performed by mixing 40 μl of PBP solutions ranging in concentrations from 0-24 μM with 40 μl of the 0.2 μM Bocillin-FL solution, in individual wells of a black 384-well microplate. FP was measured immediately upon mixing (Excitation, 490 nm; Emission, 520 nm; g-factor, 0.96), using a Cytation3 (BioTek) microplate reader and measured continuously for up to 120 minutes. The FP response stabilized after 15 minutes for P. aeruginosa and A. baumannii PBP3, 30 minutes for E. coli PBP3 and A. baumannii PBP1a, and less than 1 minute for N. gonorrhoeae PBP2. […] The competition binding assay (80 μl final volume) was validated using beta-lactams and PBPs at final concentrations of: 1.5 μM for E. coli PBP3; 0.75 μM for P. aeruginosa PBP3; 1 μM for A. baumannii PBP1a; 0.2 μM for A. baumannii PBP3; and 0.25 μM for N. gonorrhoeae PBP2. Bocillin-FL was at 0.1 μM (0.05 μM with A. baumannii PBP1a) and beta-lactam concentrations ranged from 0-1,000 μM. E. coli PBP3 was incubated with increasing concentrations of ampicillin in a black 384-well microplate (Corning) for 30 minutes. P. aeruginosa PBP3 was incubated for 15 minutes with aztreonam, whereas A. baumannii PBP1a and PBP3 were incubated for 15 minutes with meropenem, and then Bocillin-FL was added followed immediately by the FP measurement for up to 60 minutes. […] The beta-lactam potency was reported as the concentration of beta-lactam required to reduce the amount of PBP bound-Bocillin-FL by 50% (EC50). […] The EC50 of aztreonam was determined to be <0.5 μM for P. aeruginosa PBP3. […] Binding assays for boronic acid PBP inhibitors were performed in an identical fashion for the respective PBPs.

[2] = biological target: T2, PBP3 from Pseudomonas aeruginosa (PAO1) (Pseudomonas aeruginosa, UniProt G3XD46); assay: Bocillin-FL fluorescence polarization competition binding, P. aeruginosa PBP3; conditions: for IC50: Binding affinity to P. aeruginosa PBP3, fluorescence polarization competition binding assay using Bocillin-FL, read-out: P. aeruginosa PBP3 Potency
T2 construct: made in house
T2 sequence (G3XD46 whole entry): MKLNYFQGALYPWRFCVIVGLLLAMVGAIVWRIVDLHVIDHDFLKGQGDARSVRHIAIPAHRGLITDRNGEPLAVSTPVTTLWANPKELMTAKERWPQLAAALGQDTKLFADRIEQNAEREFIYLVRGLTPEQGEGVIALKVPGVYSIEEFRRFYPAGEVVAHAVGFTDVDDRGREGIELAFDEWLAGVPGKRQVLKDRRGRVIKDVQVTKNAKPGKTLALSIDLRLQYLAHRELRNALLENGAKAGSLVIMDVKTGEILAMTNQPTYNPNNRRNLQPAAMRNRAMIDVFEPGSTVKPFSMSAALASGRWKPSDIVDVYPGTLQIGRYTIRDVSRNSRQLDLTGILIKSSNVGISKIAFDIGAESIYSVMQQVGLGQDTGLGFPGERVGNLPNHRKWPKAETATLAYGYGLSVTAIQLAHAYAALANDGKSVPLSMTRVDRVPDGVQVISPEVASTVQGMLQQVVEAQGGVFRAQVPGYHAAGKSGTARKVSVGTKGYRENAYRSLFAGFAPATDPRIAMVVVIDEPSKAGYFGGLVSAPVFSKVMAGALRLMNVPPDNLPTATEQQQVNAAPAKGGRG
Excerpt: as §1

SMILES	IC50 [1] [µM]	IC50 [2] [µM]	EC50 ([2]; beta-lactam validation of FP competition assay, 15 minutes preincubation) [µM]
O=C(O)c1c(F)ccc2c1OB(O)[C@@H](NC(=O)C(NC(=O)N1CCN(C3CCN(C(=O)c4cc[nH]c(=O)c4)CC3)C1=O)c1cc(F)c(O)c(O)c1Cl)C2 (stereo partly drawn) [Example 465, (3R)-3-(2-(2-chloro-5-fluoro-3,4-dihydroxyphenyl)-2-(2-oxo-3-(1-(2-oxo-1,2-dihydropyridine-4-carbonyl)piperidin-4-yl)imidazolidine-1-carboxamido)acetamido)-7-fluoro-2-hydroxy-3,4-dihydro-2H-benzo[e][1,2]oxaborinine-8-carboxylic acid]	< 10	< 10	
C[C@H]1[C@H](NC(=O)/C(=N\OC(C)(C)C(=O)O)c2csc(N)n2)C(=O)N1S(=O)(=O)O [aztreonam, reference compound]			< 0.5
O=C(O)c1c(F)ccc2c1OB(O)[C@@H](NC(=O)C(NC(=O)N1CCN(C3CCN(C(=O)c4cncc(O)c4)CC3)C1=O)c1cc(F)c(O)c(O)c1Cl)C2 (stereo partly drawn) [Example 464, (3R)-3-(2-(2-chloro-5-fluoro-3,4-dihydroxyphenyl)-2-(3-(1-(5-hydroxynicotinoyl)piperidin-4-yl)-2-oxoimidazolidine-1-carboxamido)acetamido)-7-fluoro-2-hydroxy-3,4-dihydro-2H-benzo[e][1,2]oxaborinine-8-carboxylic acid]	< 10	< 10	
O=C(O)c1c(F)ccc2c1OB(O)[C@@H](NC(=O)C(NC(=O)N1CCN(C3CCN(C(=O)c4ccc5[nH]nnc5c4)CC3)C1=O)c1cc(F)c(O)c(O)c1Cl)C2 (stereo partly drawn) [Example 469, (3R)-3-(2-(3-(1-(1H-benzo[d][1,2,3]triazole-5-carbonyl)piperidin-4-yl)-2-oxoimidazolidine-1-carboxamido)-2-(2-chloro-5-fluoro-3,4-dihydroxyphenyl)acetamido)-7-fluoro-2-hydroxy-3,4-dihydro-2H-benzo[e][1,2]oxaborinine-8-carboxylic acid]	< 10		
